Consider two compounds from paper PMC3726930, “Synthesis and Biological Activity of N-Sulfonyltripeptides with C-Terminal Arginine as Potential Serine Proteases Inhibitors” (International Journal of Peptide Research and Therapeutics, 2012).

Read-outs that look alike come from different tables or passages of the source. Where a SMILES comes first, the peptide text is derived from it. [ ]: non-standard residue; d: D form. The star is where a group is joined. Ms = CS(=O)(=O)*

Experiment [1] addresses T1, plasmin (Homo sapiens, UniProt P00747).
T1 construct: converts the pro-enzyme plasminogen into its active form plasmin; purchased Chromogenix (Milano, Italy)
As to conditions: ref Lynas et al. [2001]; cited from earlier work.

A further experiment concerns the target urokinase (Homo sapiens, UniProt P00749). In words: Amidolytic activity of urokinase, substrate S-2444. The class given is biochemical. The settings on record: Ki calculated from IC50 by Cheng-Prusoff; triplicate; n.i. = no effect at maximum concentration 20 mM; read-out: Ki ± SD Urokinase S-2444. The procedure: Determination of amidolytic activity was performed as previously described (Okada et al. [1988]). The detailed description of the method is given below. The buffer and the enzyme solution included: • tris buffer—0.6 ml (pH 8.8),
enzyme: urokinase (50 U/ml),
synthetic substrate: S-2444 (0.1 ml, 3 mM); • (b) tris buffer—0.5 ml (pH 8.4),
(§1) Buffer and 0.1 ml of enzyme solution was added to 0.2 ml of examined compound dissolved in 0.15 M NaCl (1–17) (as control 0.15 M NaCl). The mixture was incubated for 3 min at 37 °C, then the synthetic substrate was added. After 20 min of incubation, the reaction was stopped by adding 0.1 ml of 50 % acetic acid, and the absorbance of the released p-nitroaniline was measured at 405 nm (Spekol 1300, AnalyticJena). Every value represents the average of the triplicate determination. IC50 value was considered as the concentration of the inhibitor, which decreased the absorbance at 405 nm by 50 %, compared with the absorbance measured under the same conditions without the inhibitor. Ki was calculated from IC50 based on Cheng–Prusoff equation (Cheng and Prusoff [1973]).

Experiment [2] addresses T1, plasmin. In words: Amidolytic activity of plasmin, substrate S-2251. The class given is biochemical. As to conditions: Ki calculated from IC50 by Cheng-Prusoff; triplicate; read-out: Ki ± SD Plasmin S-2251. As for the experimental part:
(§2) Determination of amidolytic activity was performed as previously described (Okada et al. [1988]). The detailed description of the method is given below. The buffer and the enzyme solution included: • tris buffer—0.6 ml (pH 8.8), […]
as §1, with “synthetic substrate: S-2238 (0.2 ml, 0.75 mM); • (c) tris buffer—0.5 ml (pH 7.4), enzyme: plasmin (0.4 U/ml), synthetic substrate: S-2251 (0.2 ml, 3 mM); • (d) […] buffer—0.5 ml (pH 7.5), Buffer” for “Buffer”

The target in the next experiment is thrombin (Bos taurus, UniProt P00735). Nature of the experiment: Amidolytic activity of thrombin, substrate S-2238. The settings on record: Ki calculated from IC50 by Cheng-Prusoff, n.i. = no effect at maximum concentration 20 mM, read-out: Ki ± SD Thrombin. It is filed as biochemical. The procedure: as §2
as §1, with “synthetic substrate: S-2444 (0.1 ml, 3 mM); • (b) tris buffer—0.5 ml (pH 8.4), enzyme: thrombin (1 U/ml), synthetic substrate: S-2238 (0.2 ml, 0.75 mM); • (c) tris buffer—0.5 ml (pH 7.4), Buffer” for “Buffer”

The target of experiment [3] is T1, plasmin. Nature of the experiment: SPRI, immobilised inhibitor interacting with plasmin. It is filed as binding. The settings on record: plasmin 1 ng/ml. The source says: Gold chips were manufactured as described in previous papers (Gorodkiewicz [2009]; Gorodkiewicz and Regulska [2010]; Gorodkiewicz et al. [2011]). The gold surface of the chip was covered with photopolymer and hydrophobic paint. 9 × 12 free gold surfaces were obtained. Using this chip, nine different solutions can be simultaneously measured without mixing the tested solutions. Twelve single SPRI measurements can be performed from one solution.
Chips were rinsed with ethanol and water and dried under a stream of nitrogen. They were then immersed in 20 mM cysteamine ethanolic solutions for at least 2 h. The chips were then rinsed with ethanol and water and dried under a stream of nitrogen.
Among the synthesised compounds, four were selected for the examination of the interaction between the enzyme and the inhibitor. They were acids of peptides 10, 12, 13 and 14. Acids can be bound to a gold surface via cysteamine. […]
SPRI measurements with an application of an enzyme array were performed as described in previous papers (Gorodkiewicz [2009]; Gorodkiewicz and Regulska [2010]; Gorodkiewicz et al. [2011]). Briefly, the measurements were performed at a fixed angle of incident light and the reflectivity was simultaneously measured across an entire chip surface. […] The signal was measured twice on the basis of registered images, after immobilisation of enzymes and then after interaction inhibitors. […]

Another experiment deals with MDA-MB-231 cells. The settings on record: 24 h.
Another experiment has as its system DLD cells. The settings on record: 24 h.

T1 sequence (P00747 581-810 limits assumed): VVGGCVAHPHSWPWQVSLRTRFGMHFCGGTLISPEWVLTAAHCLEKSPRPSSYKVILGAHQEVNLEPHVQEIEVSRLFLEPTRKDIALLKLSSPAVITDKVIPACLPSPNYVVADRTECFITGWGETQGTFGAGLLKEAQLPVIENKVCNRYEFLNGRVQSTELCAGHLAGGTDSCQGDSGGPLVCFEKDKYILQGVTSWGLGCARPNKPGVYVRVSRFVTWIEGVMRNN
T1 sequence (P00747 97-580 partner limits assumed): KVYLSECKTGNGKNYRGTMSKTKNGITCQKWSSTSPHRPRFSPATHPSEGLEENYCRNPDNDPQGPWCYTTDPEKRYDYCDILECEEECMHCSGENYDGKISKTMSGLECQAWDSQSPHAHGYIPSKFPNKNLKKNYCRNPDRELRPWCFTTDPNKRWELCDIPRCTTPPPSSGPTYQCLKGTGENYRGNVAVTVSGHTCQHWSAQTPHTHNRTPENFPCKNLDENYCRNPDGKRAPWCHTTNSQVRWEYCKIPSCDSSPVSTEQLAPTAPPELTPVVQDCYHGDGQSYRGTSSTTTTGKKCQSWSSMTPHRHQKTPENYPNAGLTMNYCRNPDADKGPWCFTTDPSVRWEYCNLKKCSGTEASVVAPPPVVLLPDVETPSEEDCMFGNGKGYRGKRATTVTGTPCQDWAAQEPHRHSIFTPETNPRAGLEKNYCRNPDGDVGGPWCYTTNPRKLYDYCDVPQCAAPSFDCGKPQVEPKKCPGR

The term Ki denotes a dissociation constant, usually derived from enzyme kinetics or from competition with a known ligand. Consider Ac-Leu-Leu-Arg-COCHO, for which the Ki at plasmin [1] was 4.9 µM.
In general, IC50 refers to the point on the concentration scale where inhibition reaches its midpoint. High values mean a need for much substance, low ones inhibition by little substance. Turning to `CS(=O)(=O)N[C@H](CO)C(=O)NCC(=O)N[C@@H](CCCNC(=N)N)C(=O)O` [Compound 12, CH3PhSO2-D-Ser-Gly-Arg-OH] (Ms-[dS]-Gly-Arg-OH; N-terminus and C-terminus assumed), the Ki at urokinase is 11.2 ± 0.89 µM; at plasmin [2], 10 ± 0.8 µM; on thrombin, more than 20000 µM. Besides, the “Inhibitor concentration above which the SPRI signal plateaus (plasmin)” value at plasmin [3] (Langmuir isotherm type curve) is “above 0.02 mM”. Moreover, the “SPRI signal for plasmin after interaction with inhibitor” value at plasmin [3] (inhibitor 0.002-0.2 mM) is “positive SPRI signal”. In addition, the IC50 in the experiment with MDA-MB-231 cells turned out to be 620 µM; in the experiment with DLD cells it was 230 µM.
